Consider 3 molecules from patent publication US5807745A, “Method of inhibiting PADGEM-mediated or ELAM-1-mediated leukocyte adhesion using an inhibitor comprising a Le^x core component” (New England Medical Center Hospitals, Inc., priority 1995, dated 1998).

Values after ≈ are worked out from the molar mass of the structure shown.

In data set [1] the test system is cell viability. Kind of data set: Cell viability by trypan blue exclusion. It counts as cell-based. As to conditions: trypan blue exclusion method.
Data set [2] deals with binding of HL60 cells to COS/PADGEM cells. In words: COS cell-PADGEM adhesion assay with labelled HL60 cells. It counts as cell-based, human. As to the method:
COS cells (1×10^5) were transfected with 40 μg of the resulting PADGEM expression vector by calcium phosphate precipitation. Coverslips (12×12 mm) were added to each culture. After 48 hours of growth in DMEM--10% fetal calf serum, the COS cells were confluent.
HL60 cells (1×10^7), maintained in culture, were washed and resuspended in 0.5 ml of serum-free RPMI 1640. The cells were labeled with 270 μCi of ^111 In oxine (Callow et al., Arch. Surg., 117: 1447-1455 (1982)) and 10 μg of bis-carboxyethyl-carboxyfluorescein (Kolber et al., J. Immunol. Meth., 108: 255-264 (1988)) by incubation at 37° C. for 30 minutes. After washing with RPMI 1640--1% bovine serum albumin, the cells (1×10^6) were incubated with the coverslips containing confluent COS cell transfectants, in the presence or absence of LNF isomers, for 20 minutes at 37° C. The coverslips were washed with RPMI 1640, and duplicate coverslips were assayed for ^111 In activity. Alternatively, samples were evaluated for HL60 cell adherence by fluorescence and phase-contrast microscopy using a Zeiss Axioscope microscope in a blind assay. Inhibition of the binding of COS/PADGEM cells to U937 cells by the antibody 80H5 was performed in experiments identical to the procedure described above.
The results of a COS cell-PADGEM adhesion assay, in which the binding of ^111 In and bis-carboxyethyl-carboxyfluorescein-lableled HL60 cells to COS/PADGEM cells was monitored by assaying ^111 In activity (Example 2), are shown in FIG. 7. […] The inhibitory effect of LNF II was more apparent when the LNF to PADGEM ratio was high. […] It is possible that minor contamination of the LNF II preparation with LNF III can account for the inhibitory activity observed.
The inhibitory effects of LNF I, II, and III on the interaction of HL60 cells and COS/PADGEM was also studied morphologically in a blind assay. In these experiments, the binding of fluorescently labeled HL60 cells to COS/PADGEM cells was scored (Example 2).

The test system of data set [3] is adherence of activated platelets to neutrophils (PADGEM-mediated). In words: Phase-contrast cell adhesion assay: thrombin-activated platelets with neutrophils. It counts as cell-based, human. To be noted: LNF isomers, FIG. 6. As to the method:
Platelets were isolated by gel filtration from fresh anticoagulated blood obtained from normal human donors (Hsu-Lin et al., J. Biol. Chem., 259: 9121-9126 (1984)). Activated platelets were prepared by incubating cells without stirring for 20 minutes at 22° C. with thrombin at a final concentration of 0.25 U/ml. Fresh platelets were used in cell adhesion assays within 30 minutes of preparation.
Neutrophils were prepared by the method of English and Anderson (J. Immunol. Method, 5: 249-252 (1974)). The neutrophil preparations were greater than 95% pure by light microscopy. Monocytes were prepared by washing the mono-nuclear leukocyte fraction twice with human serum-5 mM EDTA and incubating the cells in RPMI 1640--10% fetal calf serum in sterile […] dishes for 2 hours at 37° C. The dishes were washed three times with PBS at 37° C. to remove nonadherent cells. PBS at 0° C. was added, and the cells were incubated at 4° C. for 1 hour. Adherent cells were gently detached with a rubber policeman, washed in PBS, and resuspended in RPMI 1640--1% fetal calf serum. Lymphocytes were obtained by washing the nonadherent cells with PBS and resuspending these cells in RPMI 1640--1% fetal calf serum. The purity of these preparations was established to be greater than 90% by light microscopy using Wright esterase and nonspecific esterase stains.
Twenty microliters of platelet suspension (2×10^8 /ml) was mixed with 20 μl of cell suspension (2×10^6 /ml) and incubated for 20 minutes at 22° C. in a microfuge tube. An aliquot of the cell suspension was then in a Neubauer chamber and evaluated by light microscropy using an Olympus model BH-2 microscope. Three samples from each assay were evaluated by counting 200 cells and scoring the percentage of cells with two or more adherent platelets (Jungi et al., Blood 67: 629-636 (1986)). Antibody inhibition studies were performed by preincubating cells (20 μl; 3×10^6 /ml) with 20 μl of antibody solution for 20 minutes at 22° C. Subsequently, 20 μl of platelet suspension was added, and the mixture was incubated for 20 minutes at 22° C. Samples were analyzed as above.
To identify the PADGEM recognition site on leukocytes that mediates the binding of activated platelets, monoclonal antibodies directed at various antigens on the surface of monocytes and neutrophils were tested for their ability to inhibit the interaction of these cells with activated platelets, using the phase-contrast cell adhesion assay described in Example 2 (FIG. 1 and FIG. 2). The antibodies were raised against various leukocytes and myeloid cell lines and are directed at leukocyte antigens. […] The percentage of cells displaying two or more adherent platelets was determined as described in Example 2.

Data set [4] has as its system glycoprotein IIb-IIIa dependent platelet aggregation. Kind of data set: ADP-induced platelet aggregation. It counts as cell-based, human. To be noted: specificity control. From the text:
To address the possibility of a nonspecific effect of LNF III on cell-cell interaction involving platelets, the effect of LNF III on ADP-induced platelet aggregation was examined.

Data set [5] relates to Mel-14. As to conditions: literature report; cited from earlier work.
Data set [6] deals with PADGEM. To be noted: literature reports; cited from earlier work.

For the molecule `CC(=O)N[C@H]1[C@H](O[C@H]2[C@@H](O)[C@@H](CO)O[C@@H](O[C@H]3[C@H](O)[C@@H](O)C(O)O[C@@H]3CO)[C@@H]2O)O[C@H](CO)[C@@H](O[C@@H]2O[C@H](CO)[C@H](O)[C@H](O)[C@H]2O)[C@@H]1O[C@@H]1O[C@@H](C)[C@@H](O)[C@@H](O)[C@@H]1O` (some centres unmarked) [LNF III, Galβ1-4(Fucα1-3)GlcNAcβ1-3Galβ1-4Glc], the cell viability result in data set [1] is listed as “did not alter cell viability”. In addition, the “inhibition of binding of radiolabeled HL60 cells to COS/PADGEM cells” value in data set [2] (111In activity, FIG. 7) is reported as “significantly inhibited”. The “inhibition of binding of fluorescently labeled HL60 cells to COS/PADGEM cells” value in data set [2] (scored morphologically in a blind assay) is reported as “significant inhibitory activity”. In addition, the IC50 in data set [3] (Homo sapiens, read-out: half-maximal inhibition of the adherence of activated platelets to neutrophils) is ~50 µg/mL (≈ 58.6 µM). For the same molecule, the “inhibitory activity on adherence of activated platelets to neutrophils” value in data set [3] (direct cell adhesion assay) is listed as “effective inhibitor”. The “effect on ADP-induced platelet aggregation” value in data set [4] is listed as “equivalent in the presence or absence of LNF III”.
`O=P(O)(O)OC[C@H]1OC(O)[C@@H](O)[C@@H](O)[C@@H]1O` (some centres unmarked) [mannose 6-phosphate]: the “inhibition of Mel-14-mediated lymphocyte-endothelial cell interaction” value in data set [5] is given as “inhibit”.

B1: purified PADGEM: purified platelet activation dependent granule-external membrane protein (protein, UniProt P16109 42-830, looked up)
P-selectin: WTYHYSTKAYSWNISRKYCQNRYTDLVAIQNKNEIDYLNKVLPYYSSYYWIGIRKNNKTWTWVGTKKALTNEAENWADNEPNNKRNNEDCVEIYIKSPSAPGKWNDEHCLKKKHALCYTASCQDMSCSKQGECLETIGNYTCSCYPGFYGPECEYVRECGELELPQHVLMNCSHPLGNFSFNSQCSFHCTDGYQVNGPSKLECLASGIWTNKPPQCLAAQCPPLKIPERGNMTCLHSAKAFQHQSSCSFSCEEGFALVGPEVVQCTASGVWTAPAPVCKAVQCQHLEAPSEGTMDCVHPLTAFAYGSSCKFECQPGYRVRGLDMLRCIDSGHWSAPLPTCEAISCEPLESPVHGSMDCSPSLRAFQYDTNCSFRCAEGFMLRGADIVRCDNLGQWTAPAPVCQALQCQDLPVPNEARVNCSHPFGAFRYQSVCSFTCNEGLLLVGASVLQCLATGNWNSVPPECQAIPCTPLLSPQNGTMTCVQPLGSSSYKSTCQFICDEGYSLSGPERLDCTRSGRWTDSPPMCEAIKCPELFAPEQGSLDCSDTRGEFNVGSTCHFSCDNGFKLEGPNNVECTTSGRWSATPPTCKGIASLPTPGVQCPALTTPGQGTMYCRHHPGTFGFNTTCYFGCNAGFTLIGDSTLSCRPSGQWTAVTPACRAVKCSELHVNKPIAMNCSNLWGNFSYGSICSFHCLEGQLLNGSAQTACQENGHWSTTVPTCQAGPLTIQEALTYFGGAVASTIGLIMGGTLLALLRKRFRQKDDGKCPLNPHSHLGTYGVFTNAAFDPSP
B1: the “inhibition of PADGEM-mediated binding of activated platelets to leukocytes” value in data set [6] is “inhibited”.
